{
  "source": "patent US9688653B2",
  "about": "“Ethoxyphenyl thienyl compounds and methods for the treatment of bacterial infections” (Duke University, priority 2013, dated 2017)",
  "key": {"[1]": {"tested_on": "panel of 68 receptors", "details": "for Inhibition across off-target panel: duplicate, upper bound over all targets"}, "[2]": {"target": "norepinephrine transporter (Homo sapiens, UniProt P23975)", "sequence (P23975 whole entry)": "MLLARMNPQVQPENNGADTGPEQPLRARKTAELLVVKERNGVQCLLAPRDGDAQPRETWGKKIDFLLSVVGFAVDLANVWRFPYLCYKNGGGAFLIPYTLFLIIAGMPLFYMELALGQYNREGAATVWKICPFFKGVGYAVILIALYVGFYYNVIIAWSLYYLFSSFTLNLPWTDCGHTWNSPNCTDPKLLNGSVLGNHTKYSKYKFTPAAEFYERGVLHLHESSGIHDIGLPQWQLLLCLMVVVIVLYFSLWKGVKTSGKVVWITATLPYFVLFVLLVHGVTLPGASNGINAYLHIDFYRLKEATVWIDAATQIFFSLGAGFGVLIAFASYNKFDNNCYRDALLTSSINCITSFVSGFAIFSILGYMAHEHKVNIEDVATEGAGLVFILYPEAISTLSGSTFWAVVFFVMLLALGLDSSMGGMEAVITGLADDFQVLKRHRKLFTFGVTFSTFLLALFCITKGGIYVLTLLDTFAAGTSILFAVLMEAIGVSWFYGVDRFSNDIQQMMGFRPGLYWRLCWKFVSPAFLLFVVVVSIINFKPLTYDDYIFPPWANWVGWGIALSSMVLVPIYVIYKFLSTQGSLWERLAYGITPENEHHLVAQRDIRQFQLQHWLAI", "assay": "LeadProfilingScreen, single target", "format": "binding", "details": "Transporter, Norepinephrine (NET), hum, 10 μM", "experimental": "Evaluation of off-target effects. Off target effects of lead molecules of interest were evaluated using the LeadProfilingScreen commercial assay at Eurofins Panlabs (Bothell, Wash.). Reference standards were run as an integral part of each assay to ensure the validity of the results obtained. Assay results are presented as the percent inhibition of specific binding or activity (for n=2 replicates) for the probe compound tested at a concentration of 10 μM. Details regarding the individual assays and methods are provided in Supplementary Information File 51.\nDU003 & DU011 are biologically selective. DU003 and DU011 were submitted to the Eurofins Panlabs LeadProfilingScreen to assess off-target pharmacology 1421. […] In review of PubChem data, DU011 (CID23602075) is reported to have shown activity in only 21 of 467 (4.5%, as of Sep. 5, 2013) bioassays in which it was tested (assays unrelated to the current project). Per PubChem, DU003 (CID18109210) is reported to have shown activity in only 5 of 427 (1.2%, as of Sep. 5, 2013) bioassays in which it was tested (assays unrelated to the current project)."}, "[3]": {"tested_on": "E. coli UTI89", "assay": "Human serum sensitization (MTT)", "format": "cell-based, Escherichia coli", "details": "50 μM compound, p=0.0067 versus control; listed as DU011", "experimental": "Human serum sensitization by capsule inhibitor treatment. Overnight cultures of UTI89 were diluted 1:100 and grown with or without 50 μM compound for approximately 1.5 hrs on a shaker at 37° C. Then 25 μL of anonymous, non-identified, sterile filtered pooled human serum (purchased from Equitech Bio) was added per 100 μL of growth media. This was returned to the shaker for another 3 hrs, after which 20 μL of 5 mg/mL MTT (3-(4,5-Dimethylthiazol-2-yl)-2,5-diphenyltetrazolium bromide) was added. MTT is reduced to purple formazan by bacterial reductase enzymes, thus measuring viable bacteria. This was shaken for another 15 min at 37° C. The sample was spun to remove the growth media, followed by two washes with PBS. The formazan crystals were dissolved in 100 μL of DMSO and measured at OD570."}, "[4]": {"tested_on": "K1 antigen of UTI89", "assay": "K1 antigen whole-cell dot blot with anti-K1 serum", "format": "cell-based, Escherichia coli", "details": "100 μM", "experimental": "K1 antigen dot blot. K1 antigen was detected by dot blot assays of culture extracts probed with anti-K1 H46 serum. The assay was performed as previously described. The experiment was repeated twice with similar results, and a representative dot blot is shown."}, "[5]": {"tested_on": "Bladder carcinoma 5637 cells", "assay": "Cytotoxicity counterscreen, CellTiter Glo, 72 hr", "format": "cell-based, human", "details": "bladder carcinoma 5637 cells", "in_short": "(§1)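 5637 bladder carcinoma cells were exposed to a 10-point compound series (300-0.58 μM, 0.5% DMSO) for 72 h. Viability was measured by CellTiter-Glo luminescence, and TC50 (CC50) was derived, with Hyamine as cytotoxic control.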"}, "[6]": {"assay": "Cytotoxicity counterscreen, CellTiter Glo, 72 hr", "format": "cell-based, human", "details": "human, bladder carcinoma 5637 cells (ATCC HTB-9); for CC50 at 72 h: read-out: Mammalian cell toxicity CC50", "in_short": "as §1"}},
  "note": "Several values for one entry are separate records, joined by “and”; a condition that tells them apart may be missing. Equal entries are not always repeated. Entries after “also recorded” stand apart in the source; their conditions may differ. Where two headings read alike, the source gives them in different places.",
  "data": [
    {"compound": "CCOc1ccc(-c2cc(NC(=O)c3c(F)cccc3F)c(C(=O)O)s2)cc1", "note": "[KUC107784N-02]", "values": [
      {"measurement": "% Inh.", "setting": "[1]; 10 µM", "result": 6, "unit": "%"},
      {"measurement": "% Inh.", "setting": "[1]; Calcium Channel L-Type, Benzothiazepine, rat, 10 μM", "result": 2, "unit": "%"},
      {"measurement": "% Inh.", "setting": "[1]; Calcium Channel L-Type, Dihydropyridine, rat, 10 μM", "result": 32, "unit": "%"},
      {"measurement": "% Inh.", "setting": "[1]; Dopamine D2S, hum, 10 μM", "result": 4, "unit": "%"},
      {"measurement": "% Inh.", "setting": "[1]; Dopamine D42, hum, 10 μM", "result": 7, "unit": "%"},
      {"measurement": "% Inh.", "setting": "[1]; GABAA, Flunitrazepam, Central, rat, 10 μM", "result": 16, "unit": "%"},
      {"measurement": "% Inh.", "setting": "[1]; GABAA, Muscimol, Central, rat, 10 μM", "result": 9, "unit": "%"},
      {"measurement": "% Inh.", "setting": "[1]; Glutamate, Kainate, rat, 10 μM", "result": 11, "unit": "%"},
      {"measurement": "% Inh.", "setting": "[1]; Glutamate, NMDA, Agonism, rat, 10 μM", "result": 9, "unit": "%"},
      {"measurement": "% Inh.", "setting": "[1]; Glutamate, NMDA, Glycine, rat, 10 μM", "result": "−1", "unit": "%"},
      {"measurement": "% Inh.", "setting": "[1]; Glutamate, NMDA, Phencyclidine, rat, 10 μM", "result": 6, "unit": "%"},
      {"measurement": "% Inh.", "setting": "[1]; Imidazoline I2, Central, rat, 10 μM", "result": "−1", "unit": "%"},
      {"measurement": "% Inh.", "setting": "[1]; Nicotinic Acetylcholine, hum, 10 μM", "result": 13, "unit": "%"},
      {"measurement": "% Inh.", "setting": "[1]; Phorbol Ester, mouse, 10 μM", "result": "−1", "unit": "%"},
      {"measurement": "% Inh.", "setting": "[1]; Potassium Channel [KATP], ham, 10 μM", "result": 9, "unit": "%"},
      {"measurement": "% Inh.", "setting": "[1]; Purinergic P2X, rabbit, 10 μM", "result": "−2", "unit": "%"},
      {"measurement": "% Inh.", "setting": "[1]; Purinergic P2Y, rat, 10 μM", "result": 8, "unit": "%"},
      {"measurement": "% Inh.", "setting": "[1]; Rolipram, rat, 10 μM", "result": 9, "unit": "%"},
      {"measurement": "% Inh.", "setting": "[1]; Thyroid Hormone, rat, 10 μM", "result": "−3", "unit": "%"},
      {"measurement": "% Inh.", "setting": "[1]; Transporter, GABA, rat, 10 μM", "result": 10, "unit": "%"},
      {"measurement": "% Inh.", "setting": "[2]", "result": 13, "unit": "%"}
    ]},
    {"compound": "CCOc1ccc(-c2cc(NC(=O)c3c(F)cccc3F)c(C(=O)O)s2)cc1", "note": "[ML317, 3-(2,6-difluorobenzamido)-5-(4-ethoxyphenyl)thiophene-2-carboxylic acid]", "values": [
      {"measurement": "Sensitivity of UTI89 to pooled human serum (MTT)", "setting": "[3]", "result": "further increased serum-mediated killing; also recorded: significantly more sensitive"},
      {"measurement": "Inhibition across off-target panel", "setting": "[1]; 10 μM", "result": "< 50", "unit": "%"},
      {"measurement": "Inhibition across off-target panel", "setting": "[1]; 10 μM, listed as DU011, 10 µM", "result": "< 32", "unit": "%"},
      {"measurement": "Whole-cell anti-K1 dot blot reactivity", "setting": "[4]", "result": "reduces K1 reactive material to levels comparable to those of genetic capsule mutants"},
      {"measurement": "Cytotoxicity CC50 / TC50 / IC50", "setting": "[5]", "result": "47.2 ± 7.2 µM and 51.6 µM"},
      {"measurement": "Cytotoxicity CC50 / TC50 / IC50", "setting": "[5]; listed as CID 23602075", "result": "47.2 ± 7.2", "unit": "µM"},
      {"measurement": "CC50 at 72 h", "setting": "[6]; commercial sample, SID 103147605", "result": "47.2 ± 7.2", "unit": "µM"},
      {"measurement": "IC50 at 72 h", "setting": "[6]; first round of synthetic analogues, n = 3", "result": 51.6, "unit": "µM"},
      {"measurement": "IC50 at 72 h", "setting": "[6]; purchased analogue series, n = 2", "result": 47.2, "unit": "µM"},
      {"measurement": "CC50 at 72 h", "setting": "[6]; synthesized sample, SID 126497311", "result": "51.6 ± 13.7", "unit": "µM"}
    ]}
  ]
}
